Test results from patent publication US10328053B2 (Gilead Sciences, Inc., priority 2016, dated 2019).

test: Hepatic Stability Assay (in vitro half-life method); type: in vitro ADME; design: dose or concentration left out as unconfirmed; conditions: pooled cryopreserved hepatocytes, 37° C., 1×10^6 cells/mL, 0-6 hours, LC-MS/MS, 39.5 hours is the maximum detectable half life, read-out: t½ (converted)
Description: Hepatic Stability Assay The metabolic stability of certain compounds disclosed herein was assessed in vitro in pooled cryopreserved hepatocytes using the in vitro half-life method. Incubations were at 37° C. and final concentrations in the incubations were 1×10^6 cells/mL and […] test concentration of the compound. Aliquots were sequentially removed after 0, 1, 3 and 6 hours and analyzed by LC-MS/MS. In vitro half-life was determined by measuring the rate of disappearance of the compound and then scaled to predicted hepatic clearance using the well-stirred model. […] As such, compounds having a value of 39.5 may have a half live that exceeds 39.5 hours.

half-life	Compound
16.1 h	Cc1c(C(=O)C(=O)NC2(C)CS(=O)(=O)C2)c2n(c1C(=O)Nc1cc(F)c(F)c(F)c1)[C@@H]1C[C@@H]1C2 [Example 73, (1aR,6aR)-4-methyl-5-(2-((3-methyl-1,1-dioxidothietan-3-yl)amino)-2-oxoacetyl)-N-(3,4,5-trifluorophenyl)-1,1a,6,6a-tetrahydrocyclopropa[b]pyrrolizine-3-carboxamide]
19.5 h	Cc1c(C(=O)C(=O)NC2(c3c[nH]nn3)CC2)c2n(c1C(=O)Nc1cc(F)cc(F)c1)CCC2 [Example 76, 7-(2-((1-(1H-1,2,3-triazol-4-yl)cyclopropyl)amino)-2-oxoacetyl)-N-(3,5-difluorophenyl)-6-methyl-2,3-dihydro-1H-pyrrolizine-5-carboxamide]
4.8 h	Cc1c(C(=O)C(=O)NC2(c3c[nH]nn3)CC(F)(F)C2)c2n(c1C(=O)Nc1ccnc(C(F)F)c1)[C@@H]1C[C@@H]1C2 [Example 78, (1aR,6aR)-5-(2-((3,3-difluoro-1-(1H-1,2,3-triazol-4-yl)cyclobutyl)amino)-2-oxoacetyl)-N-(2-(difluoromethyl)pyridin-4-yl)-4-methyl-1,1a,6,6a-tetrahydrocyclopropa[b]pyrrolizine-3-carboxamide]
14.9 h	Cc1c(C(=O)C(=O)NC2(c3c[nH]nn3)CC2)c2n(c1C(=O)Nc1ccc(F)c(C#N)c1)[C@@H]1C[C@@H]1C2 [Example 79, (1aR,6aR)-5-(2-((1-(1H-1,2,3-triazol-4-yl)cyclopropyl)amino)-2-oxoacetyl)-N-(3-cyano-4-fluorophenyl)-4-methyl-1,1a,6,6a-tetrahydrocyclopropa[b]pyrrolizine-3-carboxamide]
8 h	Cc1c(C(=O)C(=O)NC2(c3c[nH]nn3)CC2)c2n(c1C(=O)Nc1ccc(F)c(F)c1)[C@@H]1C[C@@H]1C2 [Example 81, (1aR,6aR)-5-(2-((1-(1H-1,2,3-triazol-4-yl)cyclopropyl)amino)-2-oxoacetyl)-N-(3,4-difluorophenyl)-4-methyl-1,1a,6,6a-tetrahydrocyclopropa[b]pyrrolizine-3-carboxamide]
9.4 h	Cc1c(C(=O)C(=O)NC2(c3cnn[nH]3)CC2)c2n(c1C(=O)Nc1cc(Cl)ccc1F)CCC2 [Example 86, 7-(2-((1-(1H-1,2,3-triazol-5-yl)cyclopropyl)amino)-2-oxoacetyl)-N-(5-chloro-2-fluorophenyl)-6-methyl-2,3-dihydro-1H-pyrrolizine-5-carboxamide]
19.6 h	Cc1c(C(=O)C(=O)NC2(c3c[nH]nn3)CC2)c2n(c1C(=O)Nc1cc(Cl)c(F)cc1F)CCC2 [Example 91, 7-(2-((1-(1H-1,2,3-triazol-4-yl)cyclopropyl)amino)-2-oxoacetyl)-N-(5-chloro-2,4-difluorophenyl)-6-methyl-2,3-dihydro-1H-pyrrolizine-5-carboxamide]
28.8 h	CNC(=O)C1(NC(=O)C(=O)c2c(C)c(C(=O)Nc3ccc(F)cc3)n3c2C[C@H]2C[C@H]23)CC(F)(F)C1 [Example 95, (1aR,6aR)-5-(2-((3,3-difluoro-1-(methylcarbamoyl)cyclobutyl)amino)-2-oxoacetyl)-N-(4-fluorophenyl)-4-methyl-1,1a,6,6a-tetrahydrocyclopropa[b]pyrrolizine-3-carboxamide]
22.6 h	CNC(=O)C1(NC(=O)C(=O)c2c(C)c(C(=O)Nc3ccc(F)c(F)c3)n3c2C[C@H]2C[C@H]23)CC(F)(F)C1 [Example 96, (1aR,6aR)-5-(2-((3,3-difluoro-1-(methylcarbamoyl)cyclobutyl)amino)-2-oxoacetyl)-N-(3,4-difluorophenyl)-4-methyl-1,1a,6,6a-tetrahydrocyclopropa[b]pyrrolizine-3-carboxamide]
14.8 h	Cc1c(C(=O)C(=O)NC2(c3cn(C)nn3)CC2)c2n(c1C(=O)Nc1ccc(F)c(Cl)c1)CCC2 [Example 98, N-(3-chloro-4-fluorophenyl)-6-methyl-7-(2-((1-(1-methyl-1H-1,2,3-triazol-4-yl)cyclopropyl)amino)-2-oxoacetyl)-2,3-dihydro-1H-pyrrolizine-5-carboxamide]
